Measurements taken from patent US8309586B2, “Glucokinase activators and pharmaceutical compositions containing the same as an active ingredient” (LG Life Sciences Ltd., priority 2007, dated 2012).

Tested on: Glucokinase known as hexokinase IV (human GK isoform 1, pancreas form and human GK isoform 2, liver form)
Test: Glucokinase enzymatic activity assay (G6PDH-coupled, NADH absorbance at 340 nm)
Format: biochemical
Conditions: 5 mM glucose, 1 mM ATP, 37 nM GK, 10 min at room temperature
In short: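 His-tagged human GK isoform 1 (pancreas) or 2 (liver), E. coli-expressed and Ni-purified, 37 nM, with 5 mM glucose, 1 mM ATP, 1 mM NAD and G6PDH in 25 mM Hepes/KCl, 2 mM MgCl2, 1 mM DTT. Ran 10 min at room temperature, read as NADH at 340 nm. AC1.5 is the compound concentration giving 1.5-fold activity.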

AC1.5 (the compound concentration at which the enzymatic activity is increased by 1.5 times) | SMILES
7 nM | COC(=O)C[C@@H]1CSC(c2cc3cc(Cl)cc(NC4CCCC4)c3[nH]2)=N1 [Example 26, [(R)-2-(5-chloro-7-cyclopentylamino-1H-indol-2-yl)-4,5-dihydro-thiazol-4-yl]acetic acid methyl ester]
10 nM | OCCC[C@@H]1CSC(c2cc3cc(Cl)cc(NC4CCCC4)c3[nH]2)=N1 [Example 150, 3-[(R)-2-(5-chloro-7-cyclopentylamino-1H-indol-2-yl)-4,5-dihydro-thiazol-4-yl]-propan-1-ol]
21 nM | CCOC(=O)CC[C@@H]1CSC(c2cc3cc(Br)cc(NC4CCCC4)c3[nH]2)=N1 [Example 162, 3-[(R)-2-(5-bromo-7-cyclopentylamino-1H-indol-2-yl)-4,5-dihydro-thiazol-4-yl]-propionic acid ethyl ester]
6 nM | OC[C@@H]1CSC(c2cc3cc(Br)cc(NC4CCCC4)c3[nH]2)=N1 [Example 10, [(R)-2-(5-bromo-7-cyclopentylamino-1H-indol-2-yl)-4,5-dihydro-thiazol-4-yl]-methanol]
15 nM | CS(=O)(=O)CC[C@@H]1CSC(c2cc3cc(Cl)cc(NC4CCCC4)c3[nH]2)=N1 [Example 108, {5-chloro-2-[(R)-4-(2-methanesulfonyl-ethyl)-4,5-dihydro-thiazol-2-yl]-1H-indol-7-yl}-cyclopentyl-amine]
7 nM | OC[C@@H]1CSC(c2cc3cc(Cl)cc(NC4CCCC4)c3[nH]2)=N1 [Example 7, [(R)-2-(5-chloro-7-cyclopentylamino-1H-indol-2-yl)-4,5-dihydro-thiazol-4-yl]-methanol]
97 nM | CCCOc1cc(NC2CCCC2)c2[nH]c(C3=N[C@H](CC(=O)O)CS3)cc2c1 [Example 53, [(R)-2-(7-cyclopentylamino-5-propoxy-1H-indol-2-yl)-4,5-dihydro-thiazol-4-yl]-acetic acid]
15 nM | CCOC(=O)CC[C@@H]1CSC(c2cc3cc(OC(F)(F)F)cc(NC4CCCC4)c3[nH]2)=N1 [Example 168, 3-[(R)-2-(7-cyclopentylamino-5-trifluoromethoxy-1H-indol-2-yl)-4,5-dihydro-thiazol-4-yl]-propionic acid ethyl ester]
17 nM | COC(=O)C[C@@H]1CSC(c2cc3cc(Oc4cccnc4)cc(NC4CCCC4)c3[nH]2)=N1 [Example 56, {(R)-2-[7-cyclopentylamino-5-(pyridin-3-yloxy)-1H-indol-2-yl]-4,5-dihydro-thiazol-4-yl}-acetic acid methyl ester]

Continued, compound first:

SMILES | AC1.5 (the compound concentration at which the enzymatic activity is increased by 1.5 times)
OC[C@@H]1CSC(c2cc3cc(Cc4cc[nH]c4)cc(NC4CCCC4)c3[nH]2)=N1 [Example 23, {(R)-2-[7-cyclopentylamino-5-(1H-pyrrol-3-ylmethyl)-1H-indol-2-yl]-4,5-dihydro-thiazol-4-yl}-methanol] | 19 nM
O=C(C[C@@H]1CSC(c2cc3cc(Cl)cc(NC4CCOCC4)c3[nH]2)=N1)N1CCOCC1 [Example 83, 2-{(R)-2-[5-chloro-7-(tetrahydro-pyran-4-ylamino)-1H-indol-2-yl]-4,5-dihydro-thiazol-4-yl}-1-morpholin-4-yl-ethanone] | 45 nM
O=S1(=O)CCN(CC[C@@H]2CSC(c3cc4cc(Cl)cc(NC5CCCC5)c4[nH]3)=N2)CC1 [Example 105, (5-chloro-2-{(R)-4-[2-(1,1-dioxo-thiomorpholin-4-yl)-ethyl]-4,5-dihydro-thiazol-2-yl}-1H-indol-7-yl)-cyclopentyl-amine] | 6 nM
Fc1cc(NC2CCCC2)c2[nH]c(C3=N[C@H](CCN4CCCC4)CS3)cc2c1 [Example 128, cyclopentyl-{5-fluoro-2-[(R)-4-(2-pyrrolidin-1-yl-ethyl)-4,5-dihydro-thiazol-2-yl]-1H-indol-7-yl}-amine] | 16 nM
c1cc(NC2CCCC2)c2[nH]c(C3=N[C@H](Cc4nc(N5CCCCC5)no4)CS3)cc2c1 [Example 173, cyclopentyl-{2-[(R)-4-(3-piperidin-1-yl-[1,2,4]oxadiazol-5-ylmethyl)-4,5-dihydro-thiazol-2-yl]-1H-indol-7-yl}-amine] | 114 nM
OC[C@@H]1CSC(c2cc3cc(Cl)cc(NC4CCOCC4)c3[nH]2)=N1 [Example 8, {(R)-2-[5-chloro-7-(tetrahydro-pyran-4-ylamino)-1H-indol-2-yl]-4,5-dihydro-thiazol-4-yl}-methanol] | 32 nM
CN(C)C1CCN(CC[C@@H]2CSC(c3cc4cc(Cl)cc(NC5CCCC5)c4[nH]3)=N2)C1 (stereo partly drawn) [Example 103, (5-chloro-2-{(R)-4-[2-(3-dimethylamino-pyrrolidin-1-yl)-ethyl]-4,5-dihydro-thiazol-2-yl}-1H-indol-7-yl)-cyclopentyl-amine] | 16 nM
O=C(c1ccco1)N1CCN(CC[C@@H]2CSC(c3cc4cc(Cl)cc(NC5CCOCC5)c4[nH]3)=N2)CC1 [Example 121, [4-(2-{(R)-2-[5-chloro-7-(tetrahydro-pyran-4-ylamino)-1H-indol-2-yl]-4,5-dihydro-thiazol-4-yl}-ethyl)-piperazin-1-yl]-furan-2-yl-methanone] | 40 nM
CS(=O)(=O)CC[C@@H]1CSC(c2cc3cccc(NC4CCOCC4)c3[nH]2)=N1 [Example 145, {2-[(R)-4-(2-methanesulfonyl-ethyl)-4,5-dihydro-thiazol-2-yl]-1H-indol-7-yl}-(tetrahydro-pyran-4-yl)-amine] | 138 nM
CN(C)CC[C@@H]1CSC(c2cc3cccc(NC4CCCC4)c3[nH]2)=N1 [Example 142, cyclopentyl-{2-[(R)-4-(2-dimethylamino-ethyl)-4,5-dihydro-thiazol-2-yl]-1H-indol-7-yl}-amine] | 85 nM
CC(=O)N1CCN(CC[C@@H]2CSC(c3cc4cc(F)cc(NC5CCCC5)c4[nH]3)=N2)CC1 [Example 125, 1-(4-{2-[(R)-2-(7-cyclopentylamino-5-fluoro-1H-indol-2-yl)-4,5-dihydro-thiazol-4-yl]-ethyl}-piperazin-1-yl)-ethanone] | 23 nM
O=C(C[C@@H]1CSC(c2cc3cc(F)cc(NC4CCCC4)c3[nH]2)=N1)NCCN1CCOCC1 [Example 85, 2-[(R)-2-(7-cyclopentylamino-5-fluoro-1H-indol-2-yl)-4,5-dihydro-thiazol-4-yl]-N-(2-morpholin-4-yl-ethyl)-acetamide] | 18 nM
O=C(C[C@@H]1CSC(c2cc3cc(Cl)cc(NC4CCCC4)c3[nH]2)=N1)N1CCC(O)C1 (stereo partly drawn) [Example 80, 2-[(R)-2-(5-chloro-7-cyclopentylamino-1H-indol-2-yl)-4,5-dihydro-thiazol-4-yl]-1-(3-hydroxy-pyrrolidin-1-yl)-ethanone] | 21 nM
O=C(O)C[C@@H]1CSC(c2cc3cc(Oc4cccnc4)cc(NC4CCOCC4)c3[nH]2)=N1 [Example 59, {(R)-2-[5-(pyridin-3-yloxy)-7-(tetrahydro-pyran-4-ylamino)-1H-indol-2-yl]-4,5-dihydro-thiazol-4-yl}-acetic acid] | 28 nM
Cc1cc(NC2CCOCC2)c2[nH]c(C3=N[C@H](CC(=O)O)CS3)cc2c1 [Example 62, {(R)-2-[5-methyl-7-(tetrahydro-pyran-4-ylamino)-1H-indol-2-yl]-4,5-dihydro-thiazol-4-yl}-acetic acid] | 36 nM
COc1cc(NC2CCOCC2)c2[nH]c(C3=N[C@H](CCN4CCN(C(=O)CO)CC4)CS3)cc2c1 [Example 147, 2-hydroxy-1-[4-(2-{(R)-2-[5-methoxy-7-(tetrahydro-pyran-4-ylamino)-1H-indol-2-yl]-4,5-dihydro-thiazol-4-yl}-ethyl)-piperazin-1-yl]ethanone] | 52 nM
OC[C@@H]1CSC(c2cc3cc(Cl)cc(NC4CCSCC4)c3[nH]2)=N1 [Example 9, {(R)-2-[5-chloro-7-(tetrahydro-thiopyran-4-ylamino)-1H-indol-2-yl]-4,5-dihydro-thiazol-4-yl}-methanol] | 24 nM
CC(=O)N1CCN(C(=O)C[C@@H]2CSC(c3cc4cc(F)cc(NC5CCCC5)c4[nH]3)=N2)CC1 [Example 86, 1-(4-acetyl-piperazin-1-yl)-2-[(R)-2-(7-cyclopentylamino-5-fluoro-1H-indol-2-yl)-4,5-dihydro-thiazol-4-yl]-ethanone] | 23 nM
OC[C@@H]1CSC(c2cc3cc(Cn4cccn4)cc(NC4CCCC4)c3[nH]2)=N1 [Example 21, [(R)-2-[7-cyclopentylamino-5-pyrazol-1-ylmethyl-1H-indol-2-yl]-4,5-dihydro-thiazol-4-yl}-methanol] | 16 nM
OC[C@@H]1CSC(c2cc3cc(Oc4cccnc4)cc(NC4CCOCC4)c3[nH]2)=N1 [Example 14, {(R)-2-[5-(pyridin-3-yloxy)-7-(tetrahydro-pyran-4-ylamino)-1H-indol-2-yl]-4,5-dihydro-thiazol-4-yl}-methanol] | 8 nM
